According to patent US10023570B2 (Array BioPharma, Inc., priority 2015, dated 2018):

Biological target: human KDR protein in HEK-293 cells (Homo sapiens (Human), UniProt P35968)
Experiment: KDR Cell Assay (phospho-KDR in HEK-293 cells expressing inducible KDR)
Type: cell-based
Conditions: pKDR Cell HEK 10% FBS IC50, HEK-293 cells expressing inducible KDR, VEGF stimulated
Method in brief: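 HEK-293 cells with inducible human KDR were treated with compound for 1 h in DMEM (0.25% DMSO final), then lysed. Phospho-KDR was quantified by Meso Scale immunoassay, expressed as percent of control, and IC50 taken where a 4-parameter logistic fit crossed 50 POC.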

Chain of human KDR protein in HEK-293 cells (P35968 20-1356): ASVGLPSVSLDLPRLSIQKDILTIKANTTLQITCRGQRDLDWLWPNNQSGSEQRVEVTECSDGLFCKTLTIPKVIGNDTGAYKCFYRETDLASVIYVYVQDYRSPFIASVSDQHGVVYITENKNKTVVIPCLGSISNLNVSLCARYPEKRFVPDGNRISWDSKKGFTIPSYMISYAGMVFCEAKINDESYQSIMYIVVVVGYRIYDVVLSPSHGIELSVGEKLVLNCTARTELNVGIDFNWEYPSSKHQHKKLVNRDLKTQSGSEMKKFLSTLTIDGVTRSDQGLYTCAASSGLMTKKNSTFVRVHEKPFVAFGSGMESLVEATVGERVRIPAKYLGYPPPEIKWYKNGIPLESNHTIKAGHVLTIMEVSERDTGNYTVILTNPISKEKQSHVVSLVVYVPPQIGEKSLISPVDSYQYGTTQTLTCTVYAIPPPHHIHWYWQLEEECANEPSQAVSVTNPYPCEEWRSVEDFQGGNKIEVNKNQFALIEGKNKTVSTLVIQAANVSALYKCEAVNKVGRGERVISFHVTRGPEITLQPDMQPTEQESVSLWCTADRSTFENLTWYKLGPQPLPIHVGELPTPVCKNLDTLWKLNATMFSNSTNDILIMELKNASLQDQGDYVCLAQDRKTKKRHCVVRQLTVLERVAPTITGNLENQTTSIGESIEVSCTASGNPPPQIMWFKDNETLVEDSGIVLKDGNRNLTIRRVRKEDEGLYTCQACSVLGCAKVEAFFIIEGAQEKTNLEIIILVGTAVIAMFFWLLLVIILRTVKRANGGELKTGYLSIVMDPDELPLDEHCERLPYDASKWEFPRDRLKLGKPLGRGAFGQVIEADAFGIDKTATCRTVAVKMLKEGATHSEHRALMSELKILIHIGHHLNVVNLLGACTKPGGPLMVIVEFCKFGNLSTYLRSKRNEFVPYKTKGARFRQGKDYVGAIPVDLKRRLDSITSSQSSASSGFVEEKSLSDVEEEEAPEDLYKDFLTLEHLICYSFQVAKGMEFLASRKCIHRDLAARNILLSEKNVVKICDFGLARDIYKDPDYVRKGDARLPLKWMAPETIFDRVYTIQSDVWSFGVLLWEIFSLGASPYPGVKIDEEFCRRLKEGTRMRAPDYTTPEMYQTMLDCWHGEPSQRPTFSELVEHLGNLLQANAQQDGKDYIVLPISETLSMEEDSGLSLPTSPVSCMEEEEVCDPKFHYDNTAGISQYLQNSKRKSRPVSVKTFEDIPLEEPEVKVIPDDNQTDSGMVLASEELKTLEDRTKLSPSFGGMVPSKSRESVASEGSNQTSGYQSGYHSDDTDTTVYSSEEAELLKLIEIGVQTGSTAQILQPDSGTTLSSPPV

SMILES	IC50 (10% FBS) [nM]	IC50 [nM]
CCN(CC)C(C(=O)N1CCN(c2ccc(-c3cc(-c4cnn(C)c4)cn4ncc(C#N)c34)cn2)CC1)c1ccccc1 (stereo not shown) [Example 364, 4-(6-(4-(2-(diethylamino)-2-phenylacetyl)piperazin-1-yl)pyridin-3-yl)-6-(1-methyl-1H-pyrazol-4-yl)pyrazolo[1,5-a]pyridine-3-carbonitrile bis(2,2,2-trifluoroacetate)]	4360	–
CO[C@@H](C(=O)N1CCN(c2ncc(-c3cc(-c4cnn(C)c4)cn4ncc(C#N)c34)cn2)CC1)c1ccccc1 [Example 284, (R)-4-(2-(4-(2-methoxy-2-phenylacetyl)piperazin-1-yl)pyrimidin-5-yl)-6-(1-methyl-1H-pyrazol-4-yl)pyrazolo[1,5-a]pyridine-3-carbonitrile]	663	–
Cn1cc(-c2cc(-c3ccc(N4CCN(C(=O)[C@H](O)c5ccccc5)CC4)nc3)c3ccnn3c2)cn1 [Example 313, (R)-2-hydroxy-1-(4-(5-(6-(1-methyl-1H-pyrazol-4-yl)pyrazolo[1,5-a]pyridin-4-yl)pyridin-2-yl)piperazin-1-yl)-2-phenylethanone]	≥ 5000	–
Cn1cc(-c2cc(-c3ccc(N4CCN(C(=O)C[C@H](NC(=O)OC(C)(C)C)c5ccccc5)CC4)nc3)c3c(C#N)cnn3c2)cn1 [Example 17, (S)-tert-butyl (3-(4-(5-(3-cyano-6-(1-methyl-1H-pyrazol-4-yl)pyrazolo[1,5-a]pyridin-4-yl)pyridin-2-yl)piperazin-1-yl)-3-oxo-1-phenylpropyl)carbamate]	83.4	–
Cn1cc(-c2cc(-c3ccc(N4CCN(C(=O)Cc5ccccn5)CC4)nc3)c3c(C#N)cnn3c2)cn1 [Example 5, 6-(1-methyl-1H-pyrazol-4-yl)-4-(6-(4-(2-(pyridin-2-yl)acetyl)piperazin-1-yl)pyridin-3-yl)pyrazolo[1,5-a]pyridine-3-carbonitrile]	243	–
CO[C@@H]1CCN(C(=O)N2CCN(c3ccc(-c4cc(-c5cnn(C)c5)cn5ncc(C#N)c45)cn3)CC2)C1 [Example 104, (R)-4-(6-(4-(3-methoxypyrrolidine-1-carbonyl)piperazin-1-yl)pyridin-3-yl)-6-(1-methyl-a]pyridine-3-carbonitrile 1H-pyrazol-4-yl)pyrazolo[1,5-]	637	–
Cn1cc(-c2cc(-c3ccc(N4CCN(CCc5ccc(Cl)cc5)CC4)nc3)c3c(C#N)cnn3c2)cn1 [Example 140, 4-(6-(4-(4-chlorophenethyl)piperazin-1-yl)pyridin-3-yl)-6-(1-methyl-1H-pyrazol-4-yl)pyrazolo[1,5-a]pyridine-3-carbonitrile]	712	–
COc1cncc(CN2CCN(c3ccc(-c4cc(-c5cnn(C)c5)cn5ncc(C#N)c45)cn3)CC2)c1 [Example 442, 4-(6-(4-((5-methoxypyridin-3-yl)methyl)piperazin-1-yl)pyridine-3-yl)-6-(1-methyl-1H-pyrazol-4-yl)pyrazolo[1,5-a]pyridine-3-carbonitrile]	–	1670
COCCN1CCN(c2ccc(-c3cc(-c4cnn(C)c4)cn4ncc(C#N)c34)cn2)CC1 [Example 396, 4-(6-(4-(2-methoxyethyl)piperazin-1-yl)pyridin-3-yl)-6-(1-methyl-1H-pyrazol-4-yl)pyrazolo[1,5-a]pyridine-3-carbonitrile]	–	1460
Cn1ccc(-c2cc(-c3ccc(N4CCN(Cc5ccccn5)CC4)nc3)c3c(C#N)cnn3c2)n1 [Example 588, 6-(1-methyl-1H-pyrazol-3-yl)-4-(6-(4-(pyridine-2-ylmethyl)piperazin-1-yl)pyridin-3-yl)pyrazolo[1,5-a]pyridine-3-carbonitrile]	–	≥ 5000
Cn1cc(-c2cc(-c3ccc(N4CCN(Cc5cc(F)ccc5F)CC4)nc3)c3c(C#N)cnn3c2)cn1 [Example 429, 4-(6-(4-(2,5-difluorobenzyl)piperazin-1-yl)pyridin-3-yl)-6-(1-methyl-1H-pyrazol-4-yl)pyrazolo[1,5-a]pyridine-3-carbonitrile]	–	1560
Cn1cc(-c2cc(-c3ccc(N4CCN(C(=O)C5(c6ccccn6)CC5)CC4)nc3)c3c(C#N)cnn3c2)cn1 [Example 359, 6-(1-methyl-1H-pyrazol-4-yl)-4-(6-(4-(1-(pyridine-2-yl)cyclopropane-1-carbonyl)piperazin-1-yl)pyridin-3-yl)pyrazolo[1,5-a]pyridine-3-carbonitrile bis(2,2,2-trifluoroacetate)]	910	–
CCC(CC)C(=O)N1CC2(CCN(c3ccc(-c4cc(-c5cnn(C)c5)cn5ncc(C#N)c45)cn3)CC2)C1 [Example 496, 4-(6-(2-(2-ethylbutanoyl)-2,7-diazaspiro[3.5]nonan-7-yl)pyridin-3-yl)-6-(1-methyl-1H-pyrazol-4-yl)pyrazolo[1,5-a]pyridine-3-carbonitrile]	–	2120
Cn1cc(-c2cc(-c3ccc(N4C[C@@H]5C[C@H]4CN5Cc4ccccc4)nc3)c3c(C#N)cnn3c2)cn1 [Example 483, 4-(6-((1S,4S)-5-benzyl-2,5-diazabicyclo[2.2.1]heptan-2-yl)pyridin-3-yl)-6-(1-methyl-1H-pyrazol-4-yl)pyrazolo[1,5-a]pyridine-3-carbonitrile]	–	77.1
Cn1cc(-c2cc(-c3ccc(N4CCN(C(=O)C5CC5)CC4)nc3)c3c(C#N)cnn3c2)cn1 [Example 68, 4-(6-(4-(cyclopropanecarbonyl)piperazin-1-yl)pyridin-3-yl)-6-(1-methyl-1H-pyrazol-4-yl)pyrazolo[1,5-a]pyridine-3-carbonitrile]	789	–
Cn1cc(-c2cc(-c3ccc(N4CCN(C(=O)Cc5ccccc5)CC4)nc3)c3c(C#N)cnn3c2)cn1 [Example 78, 6-(1-methyl-1H-pyrazol-4-yl)-4-(6-(4-(2-phenylacetyl)piperazin-1-yl)pyridin-3-yl)pyrazolo[1,5-a]pyridine-3-carbonitrile]	80.6	–
CO[C@H]1C[C@@H](NC(=O)C2CCN(c3ccc(-c4cc(-c5cnn(C)c5)cn5ncc(C#N)c45)cn3)CC2)C1 [Example 241, 1-(5-(3-cyano-6-(1-methyl-1H-pyrazol-4-yl)pyrazolo[1,5-a]pyridin-4-yl)pyridin-2-yl)-N-((1s,3s)-3-methoxycyclobutyl) piperidine-4-carboxamide]	1840	–

Continued, values first:

IC50 (10% FBS) [nM]	IC50 [nM]	SMILES
1760	–	Cn1cc(-c2cc(-c3ccc(N4CCN(CC(C)(C)O)CC4)nc3)c3c(C#N)cnn3c2)cn1 [Example 156, 4-(6-(4-(2-hydroxy-2-methylpropyl)piperazin-1-yl)pyridin-3-yl)-6-(1-methyl-1H-pyrazol-4-yl)pyrazolo[1,5-a]pyridine-3-carbonitrile]
99.9	–	Cn1cc(-c2cc(-c3ccc(N4CCN(C(=O)c5ccccn5)CC4)nc3)c3c(C#N)cnn3c2)cn1 [Example 72, 6-(1-methyl-1H-pyrazol-4-yl)-4-(6-(4-picolinoylpiperazin-1-yl)pyridin-3-yl)pyrazolo[1,5-a]pyridine-3-carbonitrile]
575	–	Cn1ccc(-c2cc(-c3ccc(N4CCN(C(=O)[C@H](O)c5ccccc5)CC4)nc3)c3c(C#N)cnn3c2)n1 [Example 272, (R)-4-(6-(4-(2-hydroxy-2-phenylacetyl)piperazin-1-yl)pyridin-3-yl)-6-(1-methyl-1H-pyrazol-3-yl)pyrazolo[1,5-a]pyridine-3-carbonitrile]
–	437	CCN(CC)C(=O)N1CC2(CCN(c3ccc(-c4cc(-c5cnn(C)c5)cn5ncc(C#N)c45)cn3)CC2)C1 [Example 502, 7-(5-(3-cyano-6-(1-methyl-1H-pyrazol-4-yl)pyrazolo[1,5-a]pyridin-4-yl)pyridin-2-yl)-N,N-diethyl-2,7-diazaspiro[3.5]nonane-2-carboxamide]
540	–	Cn1cc(-c2cc(-c3ccc(N4CCN(C(=O)C5CCCC5)CC4)nc3)c3c(C#N)cnn3c2)cn1 [Example 21, 4-(6-(4-(cyclopentanecarbonyl)piperazin-1-yl)pyridin-3-yl)-6-(1-methyl-1H-pyrazol-4-yl)pyrazolo[1,5-a]pyridine-3-carbonitrile]
–	1240	Cn1cc(-c2cc(-c3ccc(C4CN(Cc5ccccc5)C4)nc3)c3c(C#N)cnn3c2)cn1 [Example 580, 4-(6-(1-benzylazetidin-3-yl)pyridin-3-yl)-6-(1-methyl-1H-pyrazol-4-yl)pyrazolo[1,5-a]-pyridine-3-carbonitrile]
–	1910	CO[C@](C(=O)N1CCN(c2ccc(-c3cc(-c4cnn(C)c4)cn4ncc(C#N)c34)cn2)CC1)(c1ccccc1)C(F)(F)F [Example 371, (S)-6-(1-methyl-1H-pyrazol-4-yl)-4-(6-(4-(3,3,3-trifluoro-2-methoxy-2-phenylpropanoyl)piperazin-1-yl)pyridin-3-yl)pyrazolo[1,5-a]pyridine-3-carbonitrile]
–	24.9	Cn1cc(-c2cc(-c3ccc(N4CCC(Nc5ccccc5)CC4)nc3)c3c(C#N)cnn3c2)cn1 [Example 507, 6-(1-methyl-1H-pyrazol-4-yl)-4-(6-(4-(phenylamino)piperidin-1-yl)pyridin-3-yl)pyrazolo[1,5-a]pyridine-3-carbonitrile]
1780	–	C[C@@H](C(=O)N1CCN(c2ccc(-c3cc(-c4cnn(C)c4)cn4ncc(C#N)c34)cn2)CC1)c1ccccc1 [Example 14, (R)-6-(1-methyl-1H-pyrazol-4-yl)-4-(6-(4-(2-phenylpropanoyl)piperazin-1-yl)pyridin-3-yl)pyrazolo[1,5-a]pyridine-3-carbonitrile]
60.1	–	Cn1cc(-c2cc(-c3ccc(N4CCN(S(=O)(=O)C5CCOCC5)CC4)nc3)c3c(C#N)cnn3c2)cn1 [Example 91, 6-(1-methyl-1H-pyrazol-4-yl)-4-(6-(4-((tetrahydro-2H-pyran-4-yl)sulfonyl)piperazin-1-yl)pyridin-3-yl)pyrazolo[1,5-a]pyridine-3-carbonitrile]
–	841	Cn1cc(-c2cc(-c3ccc(N4CCN(C(=O)N5CC[C@@H](c6ccccc6)C5)CC4)nc3)c3c(C#N)cnn3c2)cn1 [Example 375, (S)-6-(1-methyl-1H-pyrazol-4-yl)-4-(6-(4-(3-phenylpyrrolidine-1-carbonyl)piperazin-1-yl)pyridin-3-yl)pyrazolo[1,5-a]pyridine-3-carbonitrile]
